The nature of assay [1]: Displacement of 125 I-gastrin from gastrin receptor of guinea pig gastric glands.
Assay in assay [2]: as above
The source holds these as a separate data set.

Assay [3] can be described thus: Displacement of [125 I] CCK-8 from Cholecystokinin type B receptor of guinea pig cerebral cortex.

Structures are written as SMILES.

We go through 5 molecules from BindingDB's records for doi:10.1021/jm00121a004 (Merck Sharp & Dohme Research Laboratories, 1989).

A word on the IC50: it is the point on the concentration scale where inhibition reaches its midpoint. Lower therefore signals greater potency. In assay [1], `CCOC(=O)CN1C(=O)C(NC(=O)Nc2ccc(Cl)cc2)N=C(c2ccccc2F)c2ccccc21` (centres undefined) displayed an IC50 of 0.0041 µM.

For `O=C(Nc1ccc(Cl)cc1)NC1N=C(c2ccccc2F)c2ccccc2NC1=O` (centres undefined), the half-inhibitory concentration (IC50) in assay [2] was 0.64 µM; in assay [3], 0.3 µM.

Consider `CN1C(=O)[C@@H](NC(=O)c2ccc(Cl)cc2)N=C(c2ccccc2F)c2ccccc21`, for which the half-maximal inhibitory concentration (IC50) in assay [2] worked out at 2.5 µM; in assay [3] it was 2.9 µM.

As for `CN1C(=O)[C@H](NC(=O)c2ccc(Cl)cc2)N=C(c2ccccc2F)c2ccccc21`, the half-inhibitory concentration (IC50) in assay [1] turned out to be 7.6 µM; in assay [3], 11 µM.

For the molecule `CN1C(=O)C(NC(=O)Nc2ccc(Cl)cc2)N=C(c2ccccc2)c2ccccc21` [(R)-1-(4-Chloro-phenyl)-3-(1-methyl-2-oxo-5-phenyl-2,3-dihydro-1H-benzo[e][1,4]diazepin-3-yl)-urea], the IC50 was 0.022 µM in assay [1] and 0.023 µM in assay [3].
